The results in this text go back to US20240300980A1, “HETEROCYCLIC COMPOUNDS AS KRAS INHIBITOR, AND PREPARATION THEREFOR AND USE THEREOF IN TREATMENT” (SHANGHAI KECHOW PHARMA, INC., priority 2021, published 2024).

Where only a bound is given, the exact number is not on record here.

For this experiment, the system named is AGS cells (KRAS^G12D). Nature of the experiment: Detection of cell proliferation in vitro by MTT/MTS method (cell activity experiment). The experiment is classed as cell-based. The note with it: Homo sapiens, AGS, 72 h, AGS cells; MTT/MTS; 3 days of drug treatment; read-out: AGS IC50. The method in brief: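 After 3-day compound exposure (final DMSO 0.5%), viability of AGS (KRAS G12D) cells, plated 1000/well one day before dosing, was measured at 490 nm following 4 h MTT or MTS incubation. IC50 was fitted from dose–effect curves relative to DMSO-treated wells.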
Background: Tetrazolium dyes change colour on reduction, which living cells bring about.
By IC50 is commonly meant the concentration that gives 50% inhibition. Turning to `Oc1cc(-c2ncc3c(C4C[C@H]5CC[C@@H](C4)N5)nc(OC[C@@]45CCCN4C[C@H](F)C5)nc3c2F)c2c(F)cccc2c1` (stereo partly drawn) [Example 82, 4-(4-((1R,5S)-8-azabicyclo[3.2.1]octan-3-yl)-8-fluoro-2-(((2R,7aS)-2-fluorotetrahydro-1H-pyrrolizin-7a(5H)-yl)methoxy)pyrido [4,3-d]pyrimidin-7-yl)-5-fluoronaphthalen-2-ol], the IC50 is above 2500 nM.

`C#Cc1cccc2cc(O)cc(-c3ncc4c(C5C[C@H]6CC[C@@H](C5)N6)nc(OC[C@@]56CCCN5C[C@H](F)C6)nc4c3F)c12` (stereo partly drawn) [Example 83, 4-(4-((1R,5S)-8-azabicyclo[3.2.1]octan-3-yl)-8-fluoro-2-(((2R,7aS)-2-fluorotetrahydro-1H-pyrrolizin-7a(5H)-yl)methoxy)pyrido [4,3-d]pyrimidin-7-yl)-5-ethynylnaphthalen-2-ol]: the IC50 was above 2500 nM.

In the case of `C#Cc1c(F)ccc2cc(O)cc(-c3ncc4c(C5CCN(C(=O)CO)C5)nc(OC[C@@]56CCCN5C[C@H](F)C6)nc4c3F)c12` (stereo partly drawn) [Example 84, 1-(3-(7-(8-ethynyl-7-fluoro-3-hydroxynaphthalen-1-yl)-8-fluoro-2-(((2R,7aS)-2-fluorotetrahydro-1H-pyrrolizin-7a(5H)-yl)methoxy)pyrido[4,3-d]pyrimidin-4-yl)pyrrolidin-1-yl)-2-hydroxyethan-1-one], the IC50 was above 10000 nM.

As for `O=C(CO)N1CCC(c2nc(OC[C@@]34CCCN3C[C@H](F)C4)nc3c(F)c(-c4cc(O)cc5ccc(F)c(F)c45)ncc23)C1` (stereo partly drawn) [Example 85, 1-(3-(7-(7,8-difluoro-3-hydroxynaphthalen-1-yl)-8-fluoro-2-(((2R,7aS)-2-fluorotetrahydro-1H-pyrrolizin-7a(5H)-yl)methoxy)pyrido[4,3-d]pyrimidin-4-yl)pyrrolidin-1-yl)-2-hydroxyethan-1-one], the IC50 was above 1000 nM.

For the compound `C#Cc1c(F)ccc2cc(O)cc(-c3ncc4c(-c5ccn(C(=O)CO)c5)nc(OC[C@@]56CCCN5C[C@H](F)C6)nc4c3F)c12` [Example 86, 1-(3-(7-(8-ethynyl-7-fluoro-3-hydroxynaphthalen-1-yl)-8-fluoro-2-(((2R, 7aS)-2-fluorotetrahydro-1H-pyrrolizin-7a(5H)-yl)methoxy)pyrido[4,3-d]pyrimidin-4-yl)-1H-pyrrol-1-yl)-2-hydroxyethan-1-one], the IC50 was above 10000 nM.

Consider `C#Cc1c(F)ccc2cc(O)cc(-c3ncc4c(-c5cnn(C(=O)CO)c5)nc(OC[C@@]56CCCN5C[C@H](F)C6)nc4c3F)c12` [Example 87, 1-(4-(7-(8-ethynyl-7-fluoro-3-hydroxynaphthalen-1-yl)-8-fluoro-2-(((2R, 7aS)-2-fluorotetrahydro-1H-pyrrolizin-7a(5H)-yl)methoxy)pyrido[4,3-d]pyrimidin-4-yl)-1H-pyrazol-1-yl)-2-hydroxyethan-1-one], for which the IC50 is above 10000 nM.

For the compound `C#Cc1c(F)ccc2cc(O)cc(-c3ncc4c(-c5cn(C(=O)CO)cn5)nc(OC[C@@]56CCCN5C[C@H](F)C6)nc4c3F)c12` [Example 88, 1-(4-(7-(8-ethynyl-7-fluoro-3-hydroxynaphthalen-1-yl)-8-fluoro-2-(((2R, 7aS)-2-fluorotetrahydro-1H-pyrrolizin-7a(5H)-yl)methoxy)pyrido[4,3-d]pyrimidin-4-yl)-1H-imidazol-1-yl)-2-hydroxyethan-1-one], the IC50 is above 10000 nM.

`C#Cc1cccc2cc(O)cc(-c3ccc4c(N5C[C@H]6CC[C@@H](C5)N6)nc(OC[C@@]56CCCN5C[C@H](F)C6)nc4c3F)c12` [Example 89, 4-(4-((1R,5S)-3,8-diazabicyclo[3.2.1]octan-3-yl)-8-fluoro-2-(((2R,7aS)-2-fluorotetrahydro-1H-pyrrolizin-7a(5H)-yl)methoxy)quinazolin-7-yl)-5-ethynylnaphthalen-2-ol]: the IC50 is 1.5 nM.

Regarding `C#Cc1c(F)ccc2cc(O)cc(-c3ccc4c(N5CCC6(CCCN6)CC5)nc(OC[C@@]56CCCN5C[C@H](F)C6)nc4c3F)c12` [Example 90, 5-ethynyl-6-fluoro-4-(8-fluoro-2-(((2R,7aS)-2-fluorotetrahydro-1H-pyrrolizin-7a(5H)-yl)methoxy)-4-(1,8-diazaspiro[4,5]decan-8-yl)quinazolin-7-yl)naphthalen-2-ol], the IC50 was found to be 8920 nM.

Turning to `C#Cc1c(F)ccc2cc(O)cc(-c3ccc4c(N5C[C@H]6CC[C@@H](C5)N6)nc(OC[C@@]56CCCN5C[C@H](F)C6)nc4c3F)c12` [Example 91, 4-(4-((1R,5S)-3,8-diazabicyclo[3.2.1]octan-3-yl)-8-fluoro-2-(((2R,7aS)-2-fluorotetrahydro-1H-pyrrolizin-7a(5H)-yl)methoxy)quinazolin-7-yl)-5-ethynyl-6-fluoronaphthalen-2-ol], the IC50 worked out at 1.3 nM.

With `CCc1c(F)ccc2cc(O)cc(-c3ccc4c(N5C[C@H]6CC[C@@H](C5)N6)nc(OC[C@@]56CCCN5C[C@H](F)C6)nc4c3F)c12` [Example 92, 4-(4-((1R,5S)-3,8-diazabicyclo[3.2.1]octan-3-yl)-8-fluoro-2-(((2R,7aS)-2-fluorotetrahydro-1H-pyrrolizin-7a(5H)-yl)methoxy)quinazolin-7-yl)-5-ethyl-6-fluoronaphthalen-2-ol], the IC50 worked out at 2.7 nM.

For the compound `CCc1cccc2cc(O)cc(-c3ccc4c(N5C[C@H]6CC[C@@H](C5)N6)nc(OC[C@@]56CCCN5C[C@H](F)C6)nc4c3F)c12` [Example 93, 4-(4-((1R,5S)-3,8-diazabicyclo[3.2.1]octan-3-yl)-8-fluoro-2-(((2R,7aS)-2-fluorotetrahydro-1H-pyrrolizin-7a(5H)-yl)methoxy)quinazolin-7-yl)-5-ethylnaphthalen-2-ol], the IC50 stood at 10.1 nM.

On to `Oc1cc(-c2ccc3c(N4C[C@H]5CC[C@@H](C4)N5)nc(OC[C@@]45CCCN4C[C@H](F)C5)nc3c2F)c2c(F)c(F)ccc2c1` [Example 94, 4-(4-((1R,5S)-3,8-diazabicyclo[3.2.1]octan-3-yl)-8-fluoro-2-(((2R,7aS)-2-fluorotetrahydro-1H-pyrrolizin-7a(5H)-yl)methoxy)quinazolin-7-yl)-5,6-difluoronaphthalen-2-ol], for which the IC50 is 1.5 nM.

For `Oc1cc(-c2ccc3c(N4C[C@H]5CC[C@@H](C4)N5)nc(OC[C@@]45CCCN4C[C@H](F)C5)nc3c2F)c2c(F)cccc2c1` [Example 95, 4-(4-((1R,5S)-3,8-diazabicyclo[3.2.1]octan-3-yl)-8-fluoro-2-(((2R,7aS)-2-fluorotetrahydro-1H-pyrrolizin-7a(5H)-yl)methoxy)quinazolin-7-yl)-5-fluoronaphthalen-2-ol], the IC50 came out at 13.5 nM.

Take `C#Cc1c(F)ccc2cc(O)cc(-c3ccc4c(N5C[C@H]6CC[C@@H](C5)N6)nc(OC[C@]56CCCN5[C@@H](COC(=O)N(C)C)CC6)nc4c3F)c12` [Example 96, ((3R,7aR)-7a-(((4-((1R,5S)-3,8-diazabicyclo[3.2.1]octan-3-yl)-7-(8-ethynyl-7-fluoro-3-hydroxynaphthalen-1-yl)-8-fluoroquinazolin-2-yl)oxy)methyl)hexahydro-1H-pyrrolizin-3-yl)methyl dimethylcarbamate]: the IC50 worked out at 7.9 nM.

Consider `CCc1c(F)ccc2cc(O)cc(-c3ccc4c(N5C[C@H]6CC[C@@H](C5)N6)nc(OC[C@]56CCCN5[C@@H](COC(=O)N(C)C)CC6)nc4c3F)c12` [Example 97, ((3R,7aR)-7a-(((4-((1R,5S)-3,8-diazabicyclo[3.2.1]octan-3-yl)-7-(8-ethyl-7-fluoro-3-hydroxynaphthalen-1-yl)-8-fluoroquinazolin-2-yl)oxy)methyl)hexahydro-1H-pyrrolizin-3-yl) methyl dimethylcarbamate], for which the IC50 came out at 18 nM.

In the case of `C#Cc1c(F)ccc2cccc(-c3ccc4c(N5C[C@H]6CC[C@@H](C5)N6)nc(OC[C@]56CCCN5[C@@H](COC(=O)N(C)C)CC6)nc4c3F)c12` [Example 98, ((3R,7aR)-7a-(((4-((1R,5S)-3,8-diazabicyclo[3.2.1]octan-3-yl)-7-(8-ethynyl-7-fluoronaphthalen-1-yl)-8-fluoroquinazolin-2-yl)oxy)methyl)hexahydro-1H-pyrrolizin-3-yl) methyl dimethylcarbamate], the IC50 was determined as 129 nM.

As to `C#Cc1c(F)ccc2cc(O)cc(-c3ccc4c(N5C[C@H]6CC[C@@H](C5)N6)nc(OCC5(CN6CCCC6)CC5)nc4c3F)c12` [Example 99, 4-(4-((1R,5S)-3,8-diazabicyclo[3.2.1]octan-3-yl)-8-fluoro-2-((1-(pyrrolidin-1-ylmethyl)cyclopropyl)methoxy)quinazolin-7-yl)-5-ethynyl-6-fluoronaphthalen-2-ol], the IC50 was found to be 8.8 nM.

`CCc1c(F)ccc2cc(O)cc(-c3ccc4c(N5C[C@H]6CC[C@@H](C5)N6)nc(OCC5(CN6CCCC6)CC5)nc4c3F)c12` [Example 100, 4-(4-((1R,5S)-3,8-diazabicyclo[3.2.1]octan-3-yl)-8-fluoro-2-((1-(pyrrolidin-1-ylmethyl)cyclopropyl)methoxy)quinazolin-7-yl)-5-ethyl-6-fluoronaphthalen-2-ol]: the IC50 turned out to be 21 nM.

Regarding `Oc1cc(-c2ccc3c(N4C[C@H]5CC[C@@H](C4)N5)nc(OCC4(CN5CCCC5)CC4)nc3c2F)c2c(F)c(F)ccc2c1` [Example 101, 4-(4-((1R,5S)-3,8-diazabicyclo[3.2.1]octan-3-yl)-8-fluoro-2-((1-(pyrrolidin-1-ylmethyl)cyclopropyl)methoxy)quinazolin-7-yl)-5,6-difluoronaphthalen-2-ol], the IC50 worked out at 9.4 nM.

As to `Oc1cc(-c2ccc3c(N4C[C@H]5CC[C@@H](C4)N5)nc(OCC4(CN5CCCC5)CC4)nc3c2F)c2c(F)cccc2c1` [Example 102, 4-(4-((1R,5S)-3,8-diazabicyclo[3.2.1]octan-3-yl)-8-fluoro-2-((1-(pyrrolidin-1-ylmethyl)cyclopropyl)methoxy)quinazolin-7-yl)-5-fluoronaphthalen-2-ol], the IC50 was 33 nM.

For the compound `C#Cc1cccc2cc(O)cc(-c3ccc4c(N5C[C@H]6CC[C@@H](C5)N6)nc(OCC5(CN6CCCC6)CC5)nc4c3F)c12` [Example 103, 4-(4-((1R,5S)-3,8-diazabicyclo[3.2.1]octan-3-yl)-8-fluoro-2-((1-(pyrrolidin-1-ylmethyl)cyclopropyl)methoxy)quinazolin-7-yl)-5-ethynylnaphthalen-2-ol], the half-inhibitory concentration (IC50) was 29 nM.
